# Measured values taken from patent US9969723B2, “3-(4-(benzyloxy)phenyl)hex-4-ynoic acid derivative, method of preparing same and pharmaceutical composition for preventing and treating metabolic disease including same as effective ingredient” (HYUNDAI PHARM CO., LTD, priority 2014, dated 2018).
# Biological target: GPR40 (Homo sapiens (Human), UniProt O14842)
# Test: GPR40 protein activity by intracellular calcium concentration (Fluo-4, Flexstation 3) in transfected HEK-293 cells
# Type: cell-based
# Details: HEK-293 cells transfected with human GPR40, intracellular calcium; read-out: EC50
# Method: The GPR40 protein activity according to the novel 3-(4-(benzyloxy)phenyl)hex-4-inoic acid derivative of the present invention was measured by investigating the changes in intracellular calcium concentration affected by the GRP40 activation. First, HEK-293 cells were transfected with human GPR40 DNA (Origene, RC218370) by using Fugene HD (Promega, E2311). […] 24 hours later, the cell culture medium was replaced with Dulbecco's Modified Eagle Medium (DMEM, 50 μl/well) supplemented with 1% fetal bovine serum (FBS). To measure the calcium concentration, 50 μl of Fluo-4 reagent (Invitrogen, F10471) was added to each well, followed by culture in a 37° C. incubator for 2 hours. […] 2 hours after the culture began, those prepared samples were automatically injected to the cells by using Flexstation 3 (Molecular Devices). Then, intracellular calcium concentration was measured for 120 seconds by using SoftMax® Pro software. At this time, dimethylsulfoxide (DMSO) was injected to the cells for the non-treated group, followed by measuring the calcium concentration therein. The GPR40 protein activity was calculated by the below mathematical formula 1 with the results of calcium concentration measurement. GPR40 activity=(intracellular calcium concentration increased by the sample)/(intracellular calcium concentration of the non-treated group)×100 [Mathematical Formula 1]
# Sequence of GPR40 (O14842 whole entry): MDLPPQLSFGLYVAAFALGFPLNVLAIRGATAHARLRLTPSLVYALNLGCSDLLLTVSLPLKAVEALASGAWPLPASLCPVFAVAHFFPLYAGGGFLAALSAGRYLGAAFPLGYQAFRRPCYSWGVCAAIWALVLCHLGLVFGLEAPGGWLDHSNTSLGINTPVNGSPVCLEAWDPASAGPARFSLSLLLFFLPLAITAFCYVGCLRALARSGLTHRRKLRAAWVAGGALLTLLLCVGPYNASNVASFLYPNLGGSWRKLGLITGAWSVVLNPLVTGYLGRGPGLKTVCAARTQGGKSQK
row,EC50 [nM],Structure (SMILES)
1,200 to 300,"CC#CC(CC(=O)O)c1ccc(OCc2cccc(C3=CCC(O)CC3)c2)cc1 [Example 6, L-lysine 3-(4-(3-(4-hydroxycyclohex-1-enyl)benzyloxy)phenyl)hex-4-ynoate]"
2,> 300,"CC#C[C@H](CC(=O)O)c1ccc(OCc2cccc(C3=CCC4(CC3)OCCO4)c2)cc1 [Example 8, (3R)-3-(4-(3-(1,4-dioxaspiro[4,5]dec-7-en-8-yl)benzyloxy)phenyl)hex-4-ynoic acid]"
3,< 200,"CC#CC(CC(=O)O)c1ccc(OCc2ccc(CN3CCc4ccccc4C3)cc2)cc1 (centres unmarked) [Example 12, 3-(4-(4-((3,4-dihydroisoquinoline-2(1H)-yl)methyl)benzyloxy)phenyl)hex-4-ynoic acid]"
4,> 300,"CC#CC(CC(=O)O)c1ccc(OCc2ccc(CN3CCc4ccccc4C3)c(C3=CCCCC3)c2)cc1 (centres unmarked) [Example 13, 3-(4-(3-cyclohexenyl-4-((3,4-dihydroisoquinoline-2(1H)-yl)methyl)benzyloxy)phenyl)hex-4-ynoic acid]"
5,> 300,"CC#CC(CC(=O)O)c1ccc(OCc2ccc(CN3CCN(c4ccccc4)CC3)cc2)cc1 (centres unmarked) [Example 15, 3-(4-(4-((4-phenylpiperazine-1-yl)methyl)benzyloxy)phenyl)hex-4-ynoic acid]"
6,> 300,"CC#CC(CC(=O)O)c1ccc(OCc2ccc(CN3CCc4cc(OC)ccc4C3)cc2)cc1 (centres unmarked) [Example 16, 3-(4-(4-((6-methoxy-3,4-dihydroisoquinoline-2(1H)-yl)methyl)benzyloxy)phenyl)hex-4-ynoic acid]"
7,> 300,"CC#CC(CC(=O)O)c1ccc(OCc2ccc(CN3CCC(c4ccccc4)CC3)cc2)cc1 (centres unmarked) [Example 17, 3-(4-(4-((4-phenylpiperidine-1-yl)methyl)benzyloxy)phenyl)hex-4-ynoic acid]"
8,> 300,"CC#CC(CC(=O)O)c1ccc(OCc2ccc(CN3CCN(c4ccc(F)cc4)CC3)cc2)cc1 (centres unmarked) [Example 18, 3-(4-(4-((4-(4-fluorophenyl)piperazine-1-yl)methyl)benzyloxy)phenyl)hex-4-ynoic acid]"
9,> 300,"CC#CC(CC(=O)O)c1ccc(OCc2ccc(CN3CCN(c4ccc(C(F)(F)F)cc4)CC3)cc2)cc1 (centres unmarked) [Example 19, 3-(4-(4-((4-(4-(trifluoromethyl)phenyl)piperazine-1-yl)methyl)benzyloxy)phenyl)hex-4-ynoic acid]"
10,> 300,"CC#CC(CC(=O)O)c1ccc(OCc2ccc(CN3CCN(c4ccc(OCCCS(C)(=O)=O)cc4)CC3)cc2)cc1 (centres unmarked) [Example 20, 3-(4-(4-((4-(4-(3-(methylsulfonyl)propoxy)phenyl)piperazine-1-yl)methyl)benzyloxy)phenyl)hex-4-ynoic acid]"
11,> 300,"CC#C[C@@H](CC(=O)O)c1ccc(OCc2ccc(CN3CCN(c4ccc(C(F)(F)F)cc4)CC3)cc2)cc1 [Example 22, (S)-3-(4-(4-((4-(4-(trifluoromethyl)phenyl)piperazine-1-yl)methyl)benzyloxy)phenyl)hex-4-ynoic acid]"
12,200 to 300,"CC#C[C@@H](CC(=O)O)c1ccc(OCc2ccc(CN3CCN(c4ccc(F)cc4)CC3)cc2)cc1 [Example 23, (S)-3-(4-(4-((4-(4-fluorophenyl)piperazine-1-yl)methyl)benzyloxy)phenyl)hex-4-ynoic acid]"
13,> 300,"CC#C[C@@H](CC(=O)O)c1ccc(OCc2ccc(CN3CCc4cc(OC)ccc4C3)cc2)cc1 [Example 25, (S)-3-(4-(4-((6-methoxy-3,4-dihydroisoquinoline-2(1H)-yl)methyl)benzyloxy)phenyl)hex-4-ynoic acid]"
14,< 200,"CC#C[C@@H](CC(=O)O)c1ccc(OCc2ccc(CN3Cc4ccccc4C3)cc2)cc1 [Example 27, (S)-3-(4-(4-(isoindoline-2-ylmethyl)benzyloxy)phenyl)hex-4-ynoic acid]"
15,> 300,"CC#C[C@@H](CC(=O)O)c1ccc(OCc2ccc(CN3CC=C(c4ccc(S(C)(=O)=O)cc4)CC3)cc2)cc1 [Example 32, (S)-3-(4-(4-((4-(4-(methylsulfonyl)phenyl)-5,6-dihydropyridine-1(2H)-yl)methyl)benzyloxy)phenyl)hex-4-ynoic acid]"
16,> 300,"CC#C[C@@H](CC(=O)O)c1ccc(OCc2ccc(CN3CC=C(c4ccc(OCCCS(C)(=O)=O)cc4)CC3)cc2)cc1 [Example 33, (S)-3-(4-(4-((4-(4-(3-(methylsulfonyl)propoxy)phenyl)-5,6-dihydropyridine-1(2H)-yl)methyl)benzyloxy)phenyl)hex-4-ynoic acid]"
17,> 300,"CC#C[C@@H](CC(=O)O)c1ccc(OCc2ccc(C(C)N3CCc4ccccc4C3)cc2)cc1 (stereo partly drawn) [Example 34, (3S)-3-(4-(4-(1-(3,4-dihydroisoquinoline-2(1H)-yl)ethyl)benzyloxy)phenyl)hex-4-ynoic acid]"
18,> 300,"CC#C[C@@H](CC(=O)O)c1ccc(OCc2ccc(CN3CCN(c4ccc(O)cc4)CC3)cc2)cc1 [Example 35, (S)-3-(4-(4-((4-(4-hydroxyphenyl)piperazine-1-yl)methyl)benzyloxy)phenyl)hex-4-ynoic acid]"
19,200 to 300,"CC#C[C@@H](CC(=O)O)c1ccc(OCc2ccc(CN3CC=C(c4ccc(F)cc4)CC3)cc2)cc1 [Example 39, (S)-3-(4-(4-((4-(4-fluorophenyl)-5,6-dihydropyridine-1(2H)-yl)methyl)benzyloxy)phenyl)hex-4-ynoic acid]"
20,> 300,"CC#C[C@@H](CC(=O)O)c1ccc(OCc2ccc(CN3CCN(c4nc5ccccc5s4)CC3)cc2)cc1 [Example 43, (S)-3-(4-(4-((4-(benzo[d]thiazole-2-yl)piperazine-1-yl)methyl)benzyloxy)phenyl)hex-4-ynoic acid]"
21,> 300,"CC#C[C@@H](CC(=O)O)c1ccc(OCc2ccc(CN3CCN(c4ncc(CCC)cn4)CC3)cc2)cc1 [Example 44, (S)-3-(4-(4-((4-(5-propylpyrimidine-2-yl)piperazine-1-yl)methyl)benzyloxy)phenyl)hex-4-ynoic acid]"
22,> 300,"CC#C[C@@H](CC(=O)O)c1ccc(OCc2ccc(CN3CCN(c4ccc(C#N)cn4)CC3)cc2)cc1 [Example 45, (S)-3-(4-(4-((4-(5-cyanopyridine-2-yl)piperazine-1-yl)methyl)benzyloxy)phenyl)hex-4-ynoic acid]"
23,> 300,"CC#C[C@@H](CC(=O)O)c1ccc(OCc2ccc(CN3CCC(c4ccccc4)C3)cc2)cc1 (stereo partly drawn) [Example 46, (3S)-3-(4-(4-((3-phenylpyrrolidine-1-yl)methyl)benzyloxy)phenyl)hex-4-ynoic acid]"
24,> 300,"CC#C[C@@H](CC(=O)O)c1ccc(OCc2ccc(CCN3CCc4cc(OC)ccc4C3)cc2)cc1 [Example 48, (S)-3-(4-(4-(2-(6-methoxy-3,4-dihydroisoquinoline-2(1H)-yl)ethyl)benzyloxy)phenyl)hex-4-ynoic acid]"
25,> 300,"CC#C[C@@H](CC(=O)O)c1ccc(OCc2ccc(CCN3Cc4ccccc4C3)cc2)cc1 [Example 49, (S)-3-(4-(4-(2-(isoindoline-2-yl)ethyl)benzyloxy)phenyl)hex-4-ynoic acid]"
26,> 300,"CC#C[C@@H](CC(=O)O)c1ccc(OCc2ccc(CCN3CCc4ccccc4C3)cc2)cc1 [Example 50, (S)-3-(4-(4-(2-(3,4-dihydroisoquinoline-2(1H)-yl)ethyl)benzyloxy)phenyl)hex-4-ynoic acid]"

row,Structure (SMILES),EC50 [nM]
1,"CC#C[C@@H](CC(=O)O)c1ccc(OCc2ccc(CN3CCCc4ccccc43)cc2)cc1 [Example 41, sodium (S)-3-(4-(4-((3,4-dihydroquinoline-1(2H)-yl)methyl)benzyloxy)phenyl)hex-4-ynoate]",> 300

# Same assay, conditions: HEK-293 cells transfected with human GPR40, intracellular calcium; values in text; read-out: EC50, concentration promoting activation of GPR40 protein by 50%
row,EC50 [nM],Structure (SMILES)
1,< 200,"CC#CC(CC(=O)O)c1ccc(OCc2ccc(CN3CCc4ccccc4C3)cc2)cc1 (centres unmarked) [Example 12, 3-(4-(4-((3,4-dihydroisoquinoline-2(1H)-yl)methyl)benzyloxy)phenyl)hex-4-ynoic acid]"
2,< 200,"CC#C[C@@H](CC(=O)O)c1ccc(OCc2ccc(CN3Cc4ccccc4C3)cc2)cc1 [Example 27, (S)-3-(4-(4-(isoindoline-2-ylmethyl)benzyloxy)phenyl)hex-4-ynoic acid]"
